In patent US20140105919A1, “SYNERGISTIC INHIBITION OF ERBB2/ERBB3 SIGNAL PATHWAYS IN THE TREATMENT OF CANCER” (Institute for Cancer Research d/b/a The Research Institute …, priority 2011, published 2014):

Tests used:
Format in all cases: cell-based
[1] = tested on: MB361/DYT2 breast cancer cells; experiment: secondary validation screen with single siGENOME siRNAs with or without MM-111, CellTiter-Blue viability; parameters: Vehicle (viability score) / Drug (viability score): scale not given here; settings: for Ratio (drug:vehicle viability): single siRNA; for Drug (viability score): single siRNA and MM-111; for Vehicle (viability score): single siRNA only (vehicle)
Description: Subsets of targets that met criteria of being expressed in the cells and having an FDR of <5% or being expressed in the cells, having an FDR <20%, and having a known connection to ErbB signaling, were validated in a secondary screen in which MB361/DYT2 breast cancer cells were treated with siRNA molecules from the Dharmacon® siGENOME library (Dharmacon, Inc.). Parallel cells were treated with the siRNA only (vehicle) or both the siRNA and the ErbB2/ErbB3 bispecific antibody MM-111, and sensitization of the cells was measured by the CellTiter-Blue® (Promega) viability assay.

BT474 cells = experiment: Cell sensitization to MM-111 and gamma-secretase inhibitor, CellTiter-Blue viability; settings: BT474, 72 hrs; Compound E 1 μM, MM-111 2 μM, alone or combined; vs DMSO
Description: Inhibition of the Notch pathway was carried out with a compound. Breast cancer cells (BT474 cells) were plated in 96-well plates in DMEM/F12 media with 1% FBS and incubated in a humidified CO2 incubator at 37° C. for 24 hours prior to drug treatment. The media was replaced with DMEM/F12 media with 1% FBS containing DMSO, 1 μM Compound E (Santa Cruz, SC-221433), 2 μM MM-111 (Merrimack Pharmaceuticals), or combined Compound E and MM-111. Cells were incubated in the presence of drug for 72 hrs. CellTiter-Blue® (Promega) was used to measure cell viability according to the standard protocol. The total incubation time in the presence of CellTiter-Blue® was 4 hours, and fluorescence was measured using a Perkin Elmer Envision Plate Reader.

[2] = tested on: Notch signaling (CBF1 reporter) in BT-474 cells; experiment: Notch-dependent activation of CBF-1 reporter (Dual-Luciferase Assay); settings: MM-111 and Compound E
Description: BT-474 cells were co-transfected with CBF1::firefly luciferase and pRL-TK (renilla luciferase) as an internal control for transfection efficiency. Cells were then treated with MM-111, MM-111 and Compound E, or Rituximab (control antibody), and the ratio of firefly/renilla expression was measured using the Dual-Luciferase Assay (Promega) according to the manufacturer's instructions.

[3] = tested on: Notch target genes in MB-361/DYT2 cells; experiment: Real time PCR of endogenous Notch target genes HES1, HES5, HEY1; settings: MB361/DYT2; compared to untreated, DMSO or Rituximab
Description: MB-361/DYT2 cells were left untreated (NT) or treated with DMSO (vehicle for Compound E), rituximab (control antibody), Compound E, MM-111, or MM-111 and Compound E. Total RNA was extracted from cells using the RNeasy kit (Qiagen). Total RNA was reverse transcribed to cDNA, and real time PCR was performed, using ABI primer/probe sets, on cDNAs to detect relative expression of the validated Notch target genes HES1 (ABI Assay ID Hs00172878_m1), HES5 (ABI Assay ID Hs01387463_g1), or HEY1 (ABI Assay ID Hs01114113_m1).

Compound | Ratio (drug:vehicle viability) [1] | Drug (viability score) [1] | Vehicle (viability score) [1] | cell viability / cell killing (BT474 cells) | MM-111-induced CBF1 reporter activity [2] | expression of Notch target genes HES1, HES5, and HEY1 [3]
GGUUGUGCCUGGAGGUGGA (listed as RNA, chemistry not given here; listed as Homo sapiens) [SEQ ID NO: 24, Dharmacon siGENOME siRNA targeting TPT1] | 0.845 | 0.775 |  |  |  | 
GAAGAUACUUGGCACUAUU (listed as RNA, chemistry not given here; listed as Homo sapiens) [SEQ ID NO: 21, Dharmacon siGENOME siRNA targeting SC4MOL] | 0.877 | 0.955 | 1.089 |  |  | 
C[C@H](NC(=O)Cc1cc(F)cc(F)c1)C(=O)N[C@H]1N=C(c2ccccc2)c2ccccc2N(C)C1=O [Compound E] |  |  |  | no effect on viability | the activity is blocked | reduced
CCAAAGGCCUGACCGUUAA (listed as RNA, chemistry not given here; listed as Homo sapiens) [SEQ ID NO: 26, Dharmacon siGENOME siRNA targeting AAMP] | 0.844 | 0.821 | 0.973 |  |  | 
CAUAAGCCCUGCAAGAAUG (listed as RNA, chemistry not given here; listed as Homo sapiens) [SEQ ID NO: 17, Dharmacon siGENOME siRNA targeting DLL1] | 0.823 | 0.812 | 0.987 |  |  | 
GGGUCGCUGUGAUGAAAUU (listed as RNA, chemistry not given here; listed as Homo sapiens) [SEQ ID NO: 45, Dharmacon siGENOME siRNA targeting DCI] | 0.762 | 0.627 | 0.823 |  |  | 
GCAGCAAGACCAAGAAAUC (listed as RNA, chemistry not given here; listed as Homo sapiens) [SEQ ID NO: 57, Dharmacon siGENOME siRNA targeting CYR61] | 0.856 | 0.846 | 0.988 |  |  | 
CCACACGGUUUAAGUCUAU (listed as RNA, chemistry not given here; listed as Homo sapiens) [SEQ ID NO: 50, Dharmacon siGENOME siRNA targeting RFNG] | 0.939 | 1.250 | 1.331 |  |  | 
GGUGUUGUCUGGUCAGUAA (listed as RNA, chemistry not given here; listed as Homo sapiens) [SEQ ID NO: 19, Dharmacon siGENOME siRNA targeting NLK] | 0.776 | 0.991 | 0.993 |  |  | 
